biological target: T1, human mPGES-1 (Homo sapiens, UniProt O14684); experiment: Microsomal prostaglandin E synthase biochemical assay; conditions: microsome preparation containing human mPGES-1; PGH2 10.8 μM, GSH 2.5 mM, pH 6.8; PGE2 by HTRF; average of at least n=2
T1 sequence (O14684 1-152): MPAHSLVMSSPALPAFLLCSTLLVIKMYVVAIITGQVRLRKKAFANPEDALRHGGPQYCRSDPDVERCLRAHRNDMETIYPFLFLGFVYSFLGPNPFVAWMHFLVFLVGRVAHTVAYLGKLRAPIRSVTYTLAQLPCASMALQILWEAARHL
Description: Compounds were tested as inhibitors of microsomal prostaglandin E synthase activity in microsomal prostaglandin E synthase assays and whole cell assays. These assays measure prostaglandin E2 (PGE2) synthesis which is taken as a measure of prostaglandin E synthase activity. Microsomal prostaglandin E synthase biochemical assays used microsomal prostaglandin E synthase-1 in microsomal preparations. The source of the microsomes can be for example interleukin-1β-stimulated human A549 cells (which express human mPGES-1) or Sf9 cells transfected with plasmids encoding human mPGES-1 cDNA. The whole blood assay [described by Patrignani, P. et al., Journal of Pharmacology and Experimental Therapeutics, 1994, vol. 271, pp 1705-1712] was used as the whole cell assay for testing the compounds. Whole blood provides a protein and cell rich milieu for the study of biochemical efficacy of anti-inflammatory compounds such as prostaglandin synthase inhibitors. To study the inhibitory activities of these compounds, human blood was stimulated with lipopolysaccharide (LPS) for typically 16 hours to induce mPGES-1 expression, after which the concentration of produced PGE2 was measured by competitive-immuno assay (homogeneous time-resolved fluorescence, HTRF) as read out for effectiveness against mPGES-1-dependent PGE2 production.
Microsomal Prostaglandin E Synthase Biochemical Assay
A solution of test compound was added to a diluted microsome preparation containing human mPGES-1 and pre-incubated for 15 minutes in potassium phosphate buffer pH 6.8 with cofactor glutathione (GSH). Corresponding solutions without test compound were used as positive controls, and corresponding solutions without test compound and without microsomes were used as negative controls. The enzymatic reaction was then started by addition of the substrate PGH2 in an organic solution (dry acetonitrile).
The typical reaction conditions of the enzymatic reaction were thus: Test compound: ranging from 60 μM to 0.002 μM, or zero in positive and negative controls; potassium phosphate buffer pH 6.8: 50 mM; GSH: 2.5 mM; mPGES-1-containing microsomes: 2 μg/mL (sample and positive controls) or 0 μg/mL (negative control); PGH2: 10.8 μM; Acetonitrile: 7.7% (v/v); DMSO: 0.6% (v/v). The reaction was stopped after one minute by adding an acidic solution (pH 1.9) of ferric chloride and citrate (final concentrations 7 mM and 47 mM respectively), by which the PGH2 was sequestered (the PGH2 is reduced to mainly 12-hydroxy heptadecatrineoic acid (12-HHT) which is not detected by the subsequent PGE2 detection step). The resulting solution was then pH neutralized by addition of potassium phosphate buffer, prior to diluting an aliquot of the resulting solution in a weak potassium phosphate buffer (50 mM, pH 6.8) containing 0.2% BSA (w/v). [Adapted from Jacobsson et al., Proc. Natl. Acad. Sci. USA, 1999, vol. 96, pp. 7220-7225]The PGE2 formed was quantified by use of a commercial HTRF based kit (catalogue #62PG2PEC or #62P2APEC from Cisbio International). 100% activity was defined as the PGE2 production in positive controls subtracted by the PGE2 production in the negative controls. IC50 values were then determined using standard procedures.
The potency is expressed as IC50 and the value indicated is an average of at least n=2.

| SMILES | IC50 [nM] |
| --- | --- |
| NS(=O)(=O)c1ccc(F)cc1NS(=O)(=O)/C=C/c1ccc(-c2ccco2)cc1 [Example 34, 4-Fluoro-2-[[(E)-2-[4-(2-furyl)phenyl]ethenyl]sulfonylamino]benzenesulfonamide] | 120 |
| NS(=O)(=O)c1cc(F)ccc1NS(=O)(=O)/C=C/c1ccc(-c2ccco2)cc1 [Example 35, 5-Fluoro-2-[[(E)-2-[4-(2-furyl)phenyl]ethenyl]sulfonylamino]benzenesulfonamide] | 170 |
| NS(=O)(=O)c1c(F)cccc1NS(=O)(=O)/C=C/c1ccc(-c2ccco2)cc1 [Example 36, 2-Fluoro-6-[[(E)-2-[4-(2-furyl)phenyl]ethenyl]sulfonylamino]benzenesulfonamide] | 57 |
| CSc1ccc(/C=C/S(=O)(=O)Nc2ccc(F)cc2S(N)(=O)=O)cc1 [Example 38, 5-Fluoro-2-[[(E)-2-(4-methylsulfanylphenyl)ethenyl]sulfonylamino]-benzenesulfonamide] | 220 |
| NS(=O)(=O)c1ccc(F)cc1NS(=O)(=O)/C=C/c1ccc(OC(F)F)cc1 [Example 41, 2-[[(E)-2-[4-(Difluoromethoxy)phenyl]ethenyl]sulfonylamino]-4-fluoro-benzenesulfonamide] | 1100 |
| NS(=O)(=O)c1cc(F)ccc1NS(=O)(=O)/C=C/c1ccc(OC(F)F)cc1 [Example 42, 2-[[(E)-2-[4-(Difluoromethoxy)phenyl]ethenyl]sulfonylamino]-5-fluoro-benzenesulfonamide] | 1600 |
| NS(=O)(=O)c1cc(CO)ccc1NS(=O)(=O)CCc1ccc(Cl)cc1 [Example 44, 2-[2-(4-Chlorophenyl)ethylsulfonylamino]-5-(hydroxymethyl)benzenesulfonamide] | 750 |
| Cc1ccc(NS(=O)(=O)CCc2ccc(Cl)cc2)c(S(N)(=O)=O)c1 [Example 45, 2-[2-(4-Chloro-phenyl)-ethanesulfonylamino]-5-methylbenzenesulfonamide] | 1300 |
| NS(=O)(=O)c1cc(OCc2ccccn2)ccc1NS(=O)(=O)CCc1ccc(Cl)cc1 [Example 46, 2-[2-(4-Chlorophenyl)ethylsulfonylamino]-5-(pyridin-2-ylmethoxy)benzenesulfonamide] | 1100 |
| Cc1nnc(COc2ccc(NS(=O)(=O)CCc3ccc(Cl)cc3)c(S(N)(=O)=O)c2)o1 [Example 47, 2-[2-(4-Chlorophenyl)ethylsulfonylamino]-5-[(5-methyl-1,3,4-oxadiazol-2-yl)methoxy]benzenesulfonamide] | 1600 |
| NS(=O)(=O)c1ccccc1NS(=O)(=O)/C=C/c1ccccc1Cl [Example 48, 2-[2-(2-Chloro-phenyl)-ethenesulfonylamino]-benzenesulfonamide] | 590 |
| COc1cc(Cl)ccc1/C=C/S(=O)(=O)Nc1ccccc1S(N)(=O)=O [Example 49, 2-[2-(4-Chloro-2-methoxy-phenyl)-ethenesulfonylamino]-benzenesulfonamide] | 36 |
| NS(=O)(=O)c1c(F)cccc1NS(=O)(=O)/C=C/c1ccc(-c2ccccc2)cc1 [Example 50, 2-Fluoro-6-[[(E)-2-(4-phenylphenyl)ethenyl]sulfonylamino]benzenesulfonamide] | 130 |
| NS(=O)(=O)c1cc(F)ccc1NS(=O)(=O)/C=C/c1ccc(-c2ccccc2)cc1 [Example 52, 5-Fluoro-2-[[(E)-2-(4-phenylphenyl)ethenyl]sulfonylamino]benzenesulfonamide] | 84 |
| NS(=O)(=O)c1ccc(F)cc1NS(=O)(=O)/C=C/c1ccc(-c2ccccc2)cc1 [Example 53, 4-Fluoro-2-[[(E)-2-(4-phenylphenyl)ethenyl]sulfonylamino]benzenesulfonamide] | 160 |
| NS(=O)(=O)c1cc(F)ccc1NS(=O)(=O)/C=C/c1cccc(C(F)(F)F)c1 [Example 54, 5-Fluoro-2-[[(E)-2-[3-(trifluoromethyl)phenyl]ethenyl]sulfonylamino]-benzenesulfonamide] | 270 |
| NS(=O)(=O)c1c(F)cccc1NS(=O)(=O)/C=C/c1cccc(Cl)c1 [Example 56, 2-[[(E)-2-(3-Chlorophenyl)ethenyl]sulfonylamino]-6-fluoro-benzenesulfonamide] | 530 |
| COc1ccccc1/C=C/S(=O)(=O)Nc1cccc(F)c1S(N)(=O)=O [Example 57, 2-Fluoro-6-[[(E)-2-(2-methoxyphenyl)ethenyl]sulfonylamino]benzenesulfonamide] | 620 |
| COc1ccccc1/C=C/S(=O)(=O)Nc1cc(F)ccc1S(N)(=O)=O [Example 58, 4-Fluoro-2-[[(E)-2-(2-methoxyphenyl)ethenyl]sulfonylamino]benzenesulfonamide] | 300 |
| NS(=O)(=O)c1cccc(F)c1NS(=O)(=O)/C=C/c1cccc(Cl)c1 [Example 64, 2-[[(E)-2-(3-Chlorophenyl)ethenyl]sulfonylamino]-3-fluoro-benzenesulfonamide] | 3100 |

The remaining compounds from weak to strong by IC50, led by results:

| IC50 [nM] | SMILES |
| --- | --- |
| 4900 | NS(=O)(=O)c1cc(F)ccc1NS(=O)(=O)/C=C/c1cccc(Cl)c1 [Example 51, 2-[[(E)-2-(3-Chlorophenyl)ethenyl]sulfonylamino]-5-fluoro-benzenesulfonamide] |
| 3800 | NS(=O)(=O)c1cccc(F)c1NS(=O)(=O)/C=C/c1cccc(C(F)(F)F)c1 [Example 65, 3-Fluoro-2-[[(E)-2-[3-(trifluoromethyl)phenyl]ethenyl]sulfonylamino]-benzenesulfonamide] |
| 3000 | Cc1ccc(NS(=O)(=O)/C=C/c2cccc(Cl)c2)c(S(N)(=O)=O)c1 [Example 63, 2-[[(E)-2-(3-Chlorophenyl)ethenyl]sulfonylamino]-5-methyl-benzenesulfonamide] |
| 2500 | NS(=O)(=O)c1c(F)cccc1NS(=O)(=O)/C=C/c1ccccc1F [Example 62, 2-Fluoro-6-[[(E)-2-(2-fluorophenyl)ethenyl]sulfonylamino]benzenesulfonamide] |
| 2400 | COc1ccccc1/C=C/S(=O)(=O)Nc1c(F)cccc1S(N)(=O)=O [Example 60, 3-Fluoro-2-[[(E)-2-(2-methoxyphenyl)ethenyl]sulfonylamino]benzenesulfonamide] |
| 2400 | NS(=O)(=O)c1ccc(F)cc1NS(=O)(=O)/C=C/c1cccc(C(F)(F)F)c1 [Example 61, 4-Fluoro-2-[[(E)-2-[3-(trifluoromethyl)phenyl]ethenyl]sulfonylamino]-benzenesulfonamide] |
| 2300 | NS(=O)(=O)c1cccc(F)c1NS(=O)(=O)/C=C/c1ccc(-c2ccccc2)cc1 [Example 59, 3-Fluoro-2-[[(E)-2-(4-phenylphenyl)ethenyl]sulfonylamino]benzenesulfonamide] |
| 1400 | CSc1ccc(/C=C/S(=O)(=O)Nc2cccc(F)c2S(N)(=O)=O)cc1 [Example 39, 2-Fluoro-6-[[(E)-2-(4-methylsulfanylphenyl)ethenyl]sulfonylamino]-benzenesulfonamide] |
| 1200 | CSc1ccc(/C=C/S(=O)(=O)Nc2ccccc2S(N)(=O)=O)cc1 [Example 40, 2-[[(E)-2-(4-Methylsulfanylphenyl)ethenyl]sulfonylamino]benzenesulfonamide] |
| 360 | COc1ccccc1/C=C/S(=O)(=O)Nc1ccc(F)cc1S(N)(=O)=O [Example 55, 5-Fluoro-2-[[(E)-2-(2-methoxyphenyl)ethenyl]sulfonylamino]benzenesulfonamide] |
| 160 | CSc1ccc(/C=C/S(=O)(=O)Nc2cc(F)ccc2S(N)(=O)=O)cc1 [Example 37, 4-Fluoro-2-[[(E)-2-(4-methylsulfanylphenyl)ethenyl]sulfonylamino]-benzenesulfonamide] |
| 110 | NS(=O)(=O)c1c(F)cccc1NS(=O)(=O)/C=C/c1ccc(OC(F)F)cc1 [Example 43, 2-[[(E)-2-[4-(Difluoromethoxy)phenyl]ethenyl]sulfonylamino]-6-fluoro-benzenesulfonamide] |

From patent US20090163586A1, “Bis-(Sulfonylamino) Derivatives in Therapy 205” (AstraZeneca AB, priority 2007, published 2009)
